In patent publication US7590493B2, “Methods for determining hepatotoxins” (priority 2000, dated 2009):

What was measured:
[1] = cited from earlier work
[2] = in vivo; cited from earlier work
[3] = 24 hours, cited from earlier work
[4] = Inventors' rat studies: liver pathology and clinical chemistry
c-fos, c-jun, c-myc = conditions: post dose, acute administration; cited from earlier work
[5] = cited from earlier work; remark: listed apart in the source
[6] = cited from earlier work; remark: listed apart in the source
[7] = amitriptyline 600 mg/kg oral, PB 80 mg/kg IP, cited from earlier work; for microsomal phosphatidylcholine content: 6-24 hr
[8] = single oral dose 600 mg/kg, cited from earlier work
[9] = single dose, within 24 hours (Fracasso 1990); cited from earlier work
primary rat hepatocytes = conditions: in vitro; cited from earlier work
[10] = system: human hepatoma cell lines; conditions: in vitro; cited from earlier work

C#C[C@]1(O)CC[C@H]2[C@@H]3CCc4cc(O)ccc4[C@H]3CC[C@@]21C [17α-ethinylestradiol]
bile flow ([1]; after 3 days of drug administration): decrease
plasma cholesterol and plasma triglyceride levels ([1]; rat, in vivo): decrease
plasma levels of bilirubin, bile salts, AST and ALT ([1]; rat, in vivo): not changed

S=C=Nc1cccc2ccccc12 [ANIT, alpha-naphthylisothiocyante]
liver weight vs control-treated [2]: significantly heavier
serum ALT, gamma-glutamyl transpeptidase, total bilirubin, lipid peroxide and total bile acids [2]: significant increases
levels of total bilirubin, alkaline phosphatase, serum glutamic oxaloacetic transaminase and serum glutamic pyruvic transaminase ([3]; 80 mg/kg oral in olive oil): significantly increased
total bile flow ([3]; 80 mg/kg oral): reduced

O=C(CCN1CCN2CCCC2C1)N1c2ccccc2Sc2ccc(Cl)cc21 (stereo not shown) [AY-25329]
mitosis rates / mitotic activity ([4]; rat liver): increased
glycogen levels ([4]; rat liver, all rats examined): decreased

CC(O)(CS(=O)(=O)c1ccc(F)cc1)C(=O)Nc1ccc(C#N)c(C(F)(F)F)c1 (stereo not shown) [Bicalutamide]
hepatocellular hypertrophy ([4]; rat): minor degree
mitosis rates / mitotic activity ([4]; rat liver): increase

ClC(Cl)(Cl)Cl [CCl4, carbon tetrachloride]
time of peak hepatic mRNA level, c-fos (c-fos, c-jun, c-myc): 1 to 2 h
time of peak hepatic mRNA level, c-jun (c-fos, c-jun, c-myc): 3 h
time of peak hepatic mRNA level, c-myc (c-fos, c-jun, c-myc): 1 h
ALT and AST peak levels, increase ([5]; 0.1, 1, 2, 3, 4 mL/kg ip, […] po, within 48 hours post dose): 5-10 fold
serum α-glutathione s-transferase (α-GST) levels ([5]; 25 μL/kg po, as early as 2 hours): Significant increases

CC(=O)O[C@]1(C(C)=O)CC[C@H]2[C@@H]3C=C(Cl)C4=CC(=O)[C@@H]5C[C@@H]5[C@]4(C)[C@H]3CC[C@@]21C [CPA, cyproterone acetate]
occurrence of S phase cells ([6]; rat liver): increased
DNA repair activity ([6]; single oral dose 100 mg CPA/kg body weight, after 16 hours): continuous DNA repair activity was observed

CCOC(=O)C(C)(C)Oc1ccc(Cl)cc1 [Clofibrate]
hepatocellular alterations ([4]; following early AST/ALT increases): dose-dependent
mitosis rates / mitotic activity ([4]; rat liver): increased
AST and ALT levels ([4]; rat, in vivo): early increases

CCC1(c2ccccc2)C(=O)NC(=O)NC1=O [PB, phenobarbital]
microsomal phosphatidylcholine content [7]: increase

CN(C)CCC=C1c2ccccc2CCc2ccccc21 [amitriptyline]
microsomal phosphatidylcholine content [7]: increase
levels of GAT and PCT [7]: slightly affected
levels of PPH and CPT [7]: significantly altered
aminolevulinic acid (ALA) activity ([8]; 12 and 24 hours): marked increase
cytochrome P450 (CYP450) content [8]: remained the same
total heme and cytochrome b5 levels [8]: increased

COc1ccc2c(c1)c(CC(=O)O)c(C)n2C(=O)c1ccc(Cl)cc1 [indomethacin]
liver and renal microsomal enzymes, including CYP450 [9]: reduce

Nc1c2c(nc3ccccc13)CCCC2 [tacrine]
cytotoxicity (primary rat hepatocytes): displayed cytotoxicity
cytotoxicity [10]: displayed cytotoxicity
